Measured values from patent publication US20160115540A1, “PRODRUGS AND DRUGS” (Biogen MA Inc., priority 2013, published 2016).
Where a name gives a salt, the structure may show the parent alone.

Test system: blood and tissues
Assay: Transcriptional profiling, acute (single) dosing, EAE mice: blood and tissues
Type: in vivo
Text: EAE induction is generally performed by immunization with brain extracts, CNS proteins (such as myelin basic protein), or peptides from such protein emulsified in an adjuvant such as complete Freund's adjuvant, e.g., as described in Linker et al., Brain. 2011 March 134(Pt3): 678-92. […] FIG. 17 depicts exemplary immunophenotyping panels used to analyze various immune cell populations (e.g., T cells, T regulatory cells, NK cells, B cells, myeloid cells). […] The number of independent mice whose tissues were harvested for transcript profiling studies and whose data passed QC is shown in TABLE 15. Animals were exposed to CO2 and whole blood collected via cardiac puncture. Two 100 μl aliquots of whole blood were collected in 1.5 mL microcentrifuge tubes and snap frozen in liquid nitrogen. Peripheral (liver, spleen, kidney and jejunum) and CNS brain (cerebellum, hippocampus, striatum and cortex) tissues were harvested and snap frozen in liquid nitrogen, with special care taken to collect tissues of similar size and from the same location. All samples were stored at -80° C. until RNA extraction was conducted. For RNA preparation, frozen tissues were placed in 2 mL RNAse-free 96-well blocks with 1.5 mL QIAzol Lysis Reagent (QIAgen) and a 3.2 mm stainless steel bead (BioSpec Products, Bartlesville, Okla.). Tissues were disrupted for four cycles of 45 seconds in a Mini-Beadbeater (Biospec Products). RNA was extracted in chloroform and the aqueous phase was mixed with an equal volume of 70% ethanol. Extracted RNA was applied to RNeasy 96 plates and purified by the spin method according to the manufacturer's protocol (RNeasy 96 Universal Tissue Protocol, QIAgen, Hilden Germany). 50 ul of snap frozen mouse blood was re-suspended in lysis buffer with proteinase K and arrayed into deep-well plates for automated RNA extraction. RNA extractions were completed on […] (Beckman Coulter, Indianapolis, Ind.) using Agencourt RNAdvance Blood kit (Part number A35604) according to the manufacturer's specifications. RNA integrity was assessed using the HT RNA reagent kit (Part number 760410, Caliper Life Sciences, Hopkinton, Mass.) using a LabChip GX (PerkinElmer, Waltham, Mass.). RNA samples with a RQS score of >8.0 were considered high quality for downstream microarray processing. […] Washing and staining of the hybridized arrays were completed as described in the GeneChip Expression analysis technical manual for HT plate arrays using the Genechip® Array Station (Affymetrix, Santa Clara, Calif.) with modifications as described in […] et al. The processed GeneChip® plate arrays were scanned using GeneTitan scanner (Affymetrix, Santa Clara, Calif.). Affymetrix scans were subject to quality control (QC) measures. These tests included a visual inspection of the distribution of raw signal intensities and an assessment of RNA degradation, relative log expression (RLE), and normalized unscaled standard error (NUSE). All sample scans that passed these QC metrics were included in the analysis. […] Nucleic Acids Res 2003; 31:e15; Li C, et al. Genome Biol 2001; 2:[…]0032). […] Stat Appl Genet Mol Biol 2004; 3:Article3). […] Springer Science+Business Media 2005). […] Generally, no distinct sample groupings were apparent from this analysis; however, in the following cohorts, differences in EAE severity across the mice were manifest in global gene expression patterns: An example of this animal grouping is shown in FIG. 33 for the spinal cord from the chronically-dosed 7 h EAE mice. […] Three distinct groups of mice result from unsupervised clustering, and these animal groups correlate with the cumulative EAE score. […] Subsequent analyses for the cohorts listed above only included those animals with the most severe EAE scores; however, for the cohorts 'Spinal Cord, Acute Dosing, 7 h' and 'Spleen, Acute Dosing, 12 h,' there were an insufficient number of mice in the different treatment groups to perform such a sub-analysis. […]

[1] = EAE, Acute Dosing, 90 mpk MMF-vs-Vehicle, 7 h after last dosing
[2] = EAE, Acute Dosing, 90 mpk MMF-vs-Vehicle, 12 h after last dosing
[3] = lymph node, 100MMF-vs-Veh, 12 h

## COC(=O)/C=C/C(=O)O [MMF, monomethyl fumarate]
[1]
  Number of differentially expressed genes identified: Brain: 0
  Number of differentially expressed genes identified: Cerebellum: 1
  Number of differentially expressed genes identified: Lymph Node: 6
  Number of differentially expressed genes identified: Spleen: 114
  Number of differentially expressed genes identified: Whole blood: 6
[2]
  Number of differentially expressed genes identified: Brain: 0
  Number of differentially expressed genes identified: Cerebellum: 1
  Number of differentially expressed genes identified: Lymph Node: 4
  Number of differentially expressed genes identified: Spinal Cord: 1
  Number of differentially expressed genes identified: Whole blood: 7
cerebellum, 100MMF-vs-Veh, 12 h
  FC 5830436I19Rik 1437136_PM_at: 1.87
cerebellum, 100MMF-vs-Veh, 7 h
  FC 1446570_PM_at: 1.51
Lymph node, 100MMF-vs-Veh, 7 h
  FC Aox1 (1419435_PM_at): 2.17
  FC F3 1417408_PM_at: 1.57
  FC Gclm 1439050_PM_at: 1.50
  FC Nqo1 (1423627_PM_at): 1.98
  FC Srxn1 (1419942_PM_at): 1.65
  FC Srxn1 (1426875_PM_s_at): 1.61
[3]
  FC 1446567_PM_at: 1.74
  FC 1457549_PM_at: 1.67
  FC 4930453J04Rik 1454406_PM_at: 1.76
  FC 5830436I19Rik 1437136_PM_at: 1.65
Spinal cord, 100MMF-vs-Veh, 12 h
  FC 1445562_PM_at: 2.11
spleen, 100MMF-vs-Veh, 7 h
  FC 1190002H23Rik 1438511_PM_a_at: 1.60
  FC 1438259_PM_at: 1.56
  FC 1443364_PM_at: 1.88
  FC 1443911_PM_at: 1.54
  FC 1444212_PM_at: 1.54
  FC 1446234_PM_at: 1.50
  FC 1447706_PM_at: 1.57
  FC 1451626_PM_x_at: 1.60
  FC 1452426_PM_x_at: 1.58
  FC 1458296_PM_at: 1.79
  FC 1458586_PM_at: 1.50
  FC 2410129H14Rik 1434664_PM_at: 1.74
  FC 2410129H14Rik 1455052_PM_a_at: 1.56
  FC 2610021A01Rik 1438786_PM_a_at: 1.55
  FC 4732418C07Rik 1446425_PM_at: 1.53
  FC 5730508B09Rik 1447100_PM_s_at: 1.91
  FC AI662270 1434067_PM_at: 1.52
  FC Abi1 1438506_PM_s_at: 1.61
  FC Aco1 (1456728_PM_x_at): 1.69
  FC Acp1 1422716_PM_a_at: 1.80
  FC Adk 1438292_PM_x_at: 1.54
  FC Ampd3 1422573_PM_at: 1.61
  FC Apol9a /// Apol9b 1424518_PM_at: 1.57
  FC Arhgap21 1428369_PM_s_at: 1.57
  FC Arl4a 1435092_PM_at: 2.26
  FC Arl6ip6 1424020_PM_at: 1.52
  FC B3galnt2 1454842_PM_a_at: 1.51
  FC Birc6 1442959_PM_at: 1.54
  FC C79407 1434767_PM_at: 1.95
  FC C1d 1416886_PM_at: 1.52
  FC C330027C09Rik 1449699_PM_s_at: 1.59
  FC Cat 1416429_PM_a_at: 1.51
  FC Ccl6 (1420249_PM_s_at): 1.57
  FC Cdyl 1418070_PM_at: 1.73
  FC Cenpa 1441864_PM_x_at: 1.86
  FC Chic2 1429050_PM_at: 1.67
  FC Cno 1459783_PM_s_at: 1.58
  FC Cpt1a 1434866_PM_x_at: 1.54
  FC Cpt1a 1438156_PM_x_at: 1.52
  FC Cul4a 1451971_PM_at: 1.71
  FC Cycs /// Gm10053 1456071_PM_a_at: 1.64
  FC D030056L22Rik 1455384_PM_x_at: 1.60
  FC Dck 1439012_PM_a_at: 1.59
  FC Dck 1449176_PM_a_at: 1.89
  FC Dctn6 1416499_PM_a_at: 1.53
  FC Dennd4a 1435975_PM_at: 1.71
  FC Ell2 1450744_PM_at: 1.58
  FC Elmo1 1424523_PM_at: 1.52
  FC Gclm 1439050_PM_at: 1.99
